# Assay results published in patent US20230158006A1, “USE OF DIRECT THROMBIN INHIBITORS IN THE TREATMENT OF NEURODEGENERATIVE DISEASES” (priority 2020, published 2023).
# “Also recorded” adds a separate entry of the source.
# Tests used:
# [1] = test system: TNFa, IL-6, IL-8, MMPs; assay: Production of inflammatory proteins from endothelial cells in AD models
# [2] = test system: HIF-1a, thrombin, IL-6, MCP-1, MMP2 mRNA; assay: Real time PCR of brain tissue from AD transgenic mice; assay type: in vivo; conditions: 100 mg/kg daily for 34 weeks
# Description: (§1) Administration of thrombin inhibitor to mice and immunofluorescent staining of mice brain sections: Adult wild-type 3×TgAD—LaFerla (control) and 3×TgAD—LaFerla mice were purchased at 8 weeks of age from The Jackson Laboratory (Bar Harbor, Me.). Daily administration of the orally available direct thrombin inhibitor (DTI) dabigatran etexylate (Pradaxa®, Boehringer Ingelheim, Germany) (100 mg/kg) in PBS to AD mice and vehicle to control mice began at 18 weeks of age and continued daily for 34 weeks. DTI was administered in food. To ensure all food, and therefore drug, was consumed while maintaining ad libitum weight, mice were weighed, and food intake monitored daily. All animal procedures were performed in accordance with NIH “Guide for the Care and Use of Laboratory Animals” and Texas Tech University Health Sciences Center Institutional Animal Care and Use Committee (IACUC) guidelines.
# (§2) Real-time PCR analysis: RNA from cultured rat brain endothelial cells was prepared using the TRI Reagent RT (Molecular Research Center, Inc., Cincinnati, Ohio), according to manufacturer protocol. […] Fold difference between two samples (relative quantification) was determined by use of the delta-delta method [S1/S2=2−(T1−T2)], where S1 and S2 represent samples 1 and 2, and T1 and T2 represent the threshold cycles of samples 1 and 2, respectively.
# [3] = test system: HIF-1a, thrombin, IL-6, MCP-1, MMP2; assay: Immunofluorescence of cerebrovascular expression of HIF-1a and inflammatory proteins in AD transgenic mice; assay type: in vivo; conditions: 100 mg/kg daily for 34 weeks
# Description: as §1
# Mice were euthanized, and brain tissue fixed with 10% neutral buffered formalin (NBF). The brain was removed and 1 mm blocks of tissue from cerebral cortex were post fixed in 10% NBF for additional 12 h and embedded in paraffin. […] Sections (3 per mouse) were incubated with DAPI solution at room temperature for 25 min and viewed using an Olympus IX71 microscope and quantified with HAMAMATSU imaging software. […]
# [4] = test system: brain oxidative stress; assay: Short treatment of transgenic Tg4510 AD mice, brain oxidative stress; assay type: in vivo; conditions: non-published results
# Description: Fifteen-month-old Tg4510 mice (The Jackson Laboratory, Bar Harbor, Me.) treated for one week with vehicle dimethyl sulfoxide (DMSO) (Spectrum Chemicals & Laboratory Products, New Brunswick, N.J.) or Dabigatran (Pradaxa®, Boehringer Ingelheim Pharmaceuticals, Inc., Ridgefield, Conn.) at doses of 100 mg/kg via oral gavage. Wild-type control mice were treated with vehicle for one week. Brains were collected and homogenized and protein expression was evaluated using western blot.
# [5] = test system: reactive oxygen species; assay: ROS level (DHE) in frontal cortex brain sections of AD transgenic mice; assay type: in vivo; conditions: DTI for 34 weeks, p<0.001 vs untreated AD mice
# Description: Administration of thrombin inhibitor to mice and immunofluorescent staining of mice brain sections: Adult wild-type 3×TgAD—LaFerla (control) and 3×TgAD—LaFerla mice were purchased at 8 weeks of age from The Jackson Laboratory (Bar Harbor, Me.). Daily administration of the orally available direct thrombin inhibitor (DTI) dabigatran etexylate (Pradaxa®, Boehringer Ingelheim, Germany) (100 mg/kg) in PBS to AD mice and vehicle to control mice began at 18 weeks of age and continued daily for 34 weeks. DTI was administered in food. To ensure all food, and therefore drug, was consumed while maintaining ad libitum weight, mice were weighed, and food intake monitored daily. […]
# Detection of reactive oxygen species in cell culture and mouse brain tissue sections: Brain endothelial cell cultures were grown on coverslips in 24-well plates, incubated at 37° C. in serum free media with or without dabigatran (DTI, 1 nM) and exposed to hypoxic (6 h, 1% 02) or normoxic (21% 02) conditions. […] Brain sections and cell cultures were incubated with 5 pM of dihydroethidium (DH E) fluorescence dye (Life Technologies, Grand Island, N.Y.; D23107) and Hoechst33342 NucBlue® stain (Life Technologies, R37605) for 30 min in the dark at room temperature. […] Following two washes with PBS, images were captured immediately using an Olympus IX71 microscope and analyzed using HAMAMATSU imaging software. […]
# [6] = test system: HIF-1a, thrombin, IL-6, MCP-1, MMP2 mRNA; assay: Real-time PCR of inflammatory gene expression in brain endothelial cells exposed to 6 h hypoxia; assay type: cell-based, rat; conditions: 1 nM, p<0.01-0.001, FIG. 1
# Description: (§3) Culture and hypoxic exposure of rat brain endothelial cells: Brain endothelial cell cultures were obtained from rat brain micro-vessels, as previously described (Diglio et al., 1993). The purity of these cultures was confirmed using antibodies to the endothelial cell surface antigen Factor VIII. Endothelial cells used in this study (passages 8-15) were maintained in Dulbecco's modified Eagle's medium (DMEM, Sigma-Aldrich, St. Louis, Mo.) supplemented with 10% fetal bovine serum (FBS), 1% antibiotic/antimycotic, and 2 mM glutamine. Confluent endothelial cell cultures were washed three times with Hank's balanced salt solution (HBSS, Gibco, Grand Island, N.Y.) and then incubated at 37° C. with serum-free DMEM for 6 h under hypoxic (1% 02) or normoxic (21% 02) conditions.
# as §2, with “respectively. […]” for “respectively.”
# [7] = test system: reactive oxygen species in brain endothelial cell cultures; assay: ROS levels (DHE) in cultured brain endothelial cells; assay type: cell-based, rat; conditions: for hypoxia-induced increase in ROS generation: 6 h hypoxia, p<0.001; for ROS level, mean signal intensity of DHE stained cells to non-stained cells: DTI 1 nM, mean ± SD
# Description: as §3
# Detection of reactive oxygen species in cell culture and mouse brain tissue sections: Brain endothelial cell cultures were grown on coverslips in 24-well plates, incubated at 37° C. in serum free media with or without dabigatran (DTI, 1 nM) and exposed to hypoxic (6 h, 1% 02) or normoxic (21% 02) conditions. Sections from frozen brain (10-20 µm thickness) were placed on coverslips in 24-well plates with 0.5 ml of PBS at room temperature. Brain sections and cell cultures were incubated with 5 pM of dihydroethidium (DH E) fluorescence dye (Life Technologies, Grand Island, N.Y.; D23107) and Hoechst33342 NucBlue® stain (Life Technologies, R37605) for 30 min in the dark at room temperature. DHE is a cell permeable compound which reacts with intracellular ROS to form oxyethidium, which emits a bright red color detectable by fluorescent microscopy. Following two washes with PBS, images were captured immediately using an Olympus IX71 microscope and analyzed using HAMAMATSU imaging software.
# Brain endothelial cell cultures were incubated in serum-free media or serum free media plus DTI (1 nM) and exposed to hypoxia (1% 02) or normoxic (21% 02) conditions for 6 h. The cells were incubated for 30 min with 5 pM of Dihydroethidium (DHE, red) fluorescent dye and NucBlue stain (blue). ROS generation was assessed by quantitation of signal intensities of DHE stained cells to non-stained cells. Data represent mean signal intensity of DHE stained cells to non-stained cells±SD from at least 3 separate experiments performed in duplicate. ***p<0.001 vs. Control; a p<0.001 vs. Hypoxia.
# [8] = test system: rat brain endothelial cells; assay: Cell survival by MTT assay, brain endothelial cell cultures exposed to hypoxia or normoxia; assay type: cell-based
# Description: as §3
# Measurement of cell survival by MTT assay: Cells were washed with phosphate buffer saline (PBS) and incubated with the MTT reagent 3-(4,5-dimethylthiazol-2-yl)-2-5-diphenyl tetrazolium bromide (1:40 dilution) for 5-10 min at 37° C. The cells convert the MTT reagent to formazan which is quantified by colorimetric assay (Cell Titer 95 Aqueous solution cell proliferation assay, Promega, Madison, Wis.). The formazan product was read at 490 nm. The number of control cells, i.e., viable cells not exposed to any treatment, was defined as 100%.
# Brain micro-vessel endothelial cell cultures were incubated with the DTI dabigatran (10 pM-100 nM), exposed to hypoxia for 6 h and cell viability measured by MTT assay. There was a modest (19%) but significant (p<0.05) increase in cell survival at 1-10 nM DTI while DTI doses in excess of 100 nM were toxic.
smiles,measurement,setting,value
CCCCCCOC(=O)NC(=N)c1ccc(NCc2nc3cc(C(=O)N(CCC(=O)OCC)c4ccccn4)ccc3n2C)cc1,"production of TNFa, IL-6, IL-8, MMPs and other inflammatory proteins from endothelial cells",[1],reducing the production
same,"RNA levels of HIF-1a, thrombin, IL-6, MCP-1, MMP2 in brain tissue","[2]; p<0.01 to p<0.001, FIG. 3",reduces expression
same,"RNA levels of HIF-1a, thrombin, IL-6, MCP-1, MMP2 in brain tissue","[2]; p<0.01 to p<0.001, FIG. 3, listed as DTI",decrease in RNA levels
same,"cerebrovascular expression of HIF-1a, thrombin, IL-6, MCP-1, MMP2 proteins",[3]; FIG. 2,significantly decreases expression
same,"cerebrovascular expression of HIF-1a, thrombin, IL-6, MCP-1, MMP2 proteins","[3]; FIG. 2, listed as DTI",reduced expression of these proteins
same,brain oxidative stress,[4],lowering brains' oxidative stress
same,ROS generation (DHE level) in brain sections,[5]; FIG. 4,inhibited; also recorded: significantly decreases expression
same,ROS generation (DHE level) in brain sections,"[5]; FIG. 4, listed as DTI",decreased DHE level
same,"hypoxia-mediated effects on inflammatory gene expression (HIF-1a, thrombin, IL-6, MCP-1, MMP2 mRNA)",[6],reduced hypoxia-mediated effects on inflammatory gene expression
same,hypoxia-induced increase in ROS generation,[7],inhibited
same,hypoxia-induced increase in ROS generation,[7]; listed as DTI,blocked
same,"ROS level, mean signal intensity of DHE stained cells to non-stained cells",[7]; Control + DTI: normoxic (21% O2) 6 h,0.65±
same,"ROS level, mean signal intensity of DHE stained cells to non-stained cells","[7]; Hypoxia + DTI: hypoxia (1% O2) 6 h, p<0.001 vs. Hypoxia",0.92 ± 0.06a
same,increase in cell survival,"[8]; hypoxia 6 h, 1-10 nM DTI, p<0.05",19%
same,DTI doses toxic to cells,"[8]; hypoxia 6 h, MTT",> 100 nM
same,effect on cell survival under normoxic conditions,"[8]; normoxic, doses under 100 nM, data not shown",did not affect cell survival
